Experimental data: PMC9376960, “Ruthenium(II)–Tris-pyrazolylmethane Complexes Inhibit Cancer Cell Growth by Disrupting Mitochondrial Calcium Homeostasis” (Journal of Medicinal Chemistry, 2022)
Marks after values point to notes of the source that are not given here.

Key:
[1] = Stability and chloride/water exchange in D2O (NMR); type: physicochemical; details: for Aquo species % in D2O after 48h: 48 h at 37 °C; for residual complex % in D2O: sum of chloro and aquo complexes; for Aquo species % in D2O at t0: t0 = after 2 h stirring in D2O
Protocol: The same samples prepared at point (a) were used in this experiment, apart from complex 1 that was dissolved in DMSO-d6/D2O 4:1 v/v solution (0.7 mL; [Ru] = approx. […]) containing Me2SO2 as the standard.[115] After ^1H and ^31P{^1H} NMR analyses described above at point (a) (time = t0), samples were heated at 37 °C for 48 h. After cooling to room temperature, ^1H and ^31P NMR spectra were recorded. The percentage of starting complex + related aquo complex was calculated by the relative integral (C^βH signal in the ^1H spectrum) with respect to Me2SO2 (c = 3.3 × 10^–3 mol·L^–1; δ/ppm = 3.14 in D2O; δ/ppm = 2.95 in DMSO-d6/D2O 4:1 v/v), see Table 2 and S1.

[2] = Stability and speciation in deuterated cell culture medium (DMEM-d/DMSO-d6, NMR); type: physicochemical; details: for Aquo species % in DMEM-d/DMSO-d6 at t0 / Aquo species % in DMEM-d/DMSO-d6 after 24h: DMSO-d6-DMEM-d 1:4 v/v; for Aquo species % in DMEM-d/DMSO-d6 after 24h: 37 °C; for residual complex % in DMEM-d/DMSO-d6: after 24 h at 37 °C
Protocol: Powdered DMEM cell culture medium (1000 mg/L glucose and L-glutamine, without sodium bicarbonate and phenol red; D2902; Sigma-Aldrich) was dissolved in D2O (10 mg/mL), according to the manufacturer’s instructions. The solution of deuterated cell culture medium (“DMEM-d”) was treated with Me2SO2 (6.6 × 10^–3 M) and NaH2PO4/Na2HPO4 (0.10 M, pD = 7.5)[120]−[122] and then stored at 4 °C under N2. The selected ruthenium compound (2–3 mg) was dissolved in DMSO-d6 (0.14 mL; 0.18 mL for 4) and then diluted with DMEM-d up to 0.75 mL total volume (cRu ca. 4 × 10^–3 M). The mixture was stirred for 30 min, then filtered over celite, and transferred into an NMR tube. The resulting yellow solution was analyzed by ^1H and ^31P NMR (delay time = 3 s; number of scans = 20) and then heated at 37 °C for 24 h. After cooling to room temperature, NMR analyses were repeated. Compound 1 was instead dissolved in a DMSO-d6/DMEM-d 4:1 v/v solution (0.7 mL; [Ru] = approx. 3 × 10^–3 M) containing Me2SO2 as the internal standard.[115] The percentage of the starting complex + related aquo complex was calculated by the relative integral with respect to Me2SO2 (δ/ppm = 3.16 in DMSO-d6/DMEM-d 1:4 and 1:3 v/v; δ/ppm = 2.95 in DMSO-d6/DMEM-d 4:1 v/v).

HCT116 = assay: SRB antiproliferative assay; type: cell-based, human; details: SRB test, 72 h; mean ± SD
Protocol: (§1) In vitro antiproliferative activity of Ru complexes was determined by the MTT or, alternatively, SRB assay as already described,[84] after 72 h of incubation of cells with various concentrations of the Ru complex. The reported IC50 values are an average of three independent experiments, each consisting of three replicates per concentration.

RD = assay: MTT antiproliferative assay; type: cell-based, human; details: 72 h, mean ± SD
Protocol: All of the cell lines were cultivated in DMEM medium (high glucose 4.5 g L^–1, PAA, Pasching, Austria) supplemented with gentamycin (50 μg mL^–1, Serva, Heidelberg, Germany) and 10% heat-inactivated fetal bovine serum (PAA). The medium for MRC5pd30 cells was further supplemented by 1% nonessential amino acids (Sigma-Aldrich, Prague, Czech Republic). All cells were cultured as adherent monolayers in a humidified incubator at 37 °C in a 5% CO2 atmosphere and subcultured twice a week with an appropriate plating density. In vitro antiproliferative activity of Ru complexes was determined by the MTT or, alternatively, SRB assay as already described,[84] after 72 h of incubation of cells with various concentrations of the Ru complex. The reported IC50 values are an average of three independent experiments, each consisting of three replicates per concentration.

[3] = test system: cancer cell lines (MCF-7, HeLa, 518A2, HCT116, RD) vs noncancerous MRC-5pd30; assay: MTT panel: average IC50 of cancer cell lines and selectivity index; type: cell-based, human; details: for SI (selectivity index): IC50 for noncancerous MRC-5pd30 vs the average IC50 value of cancer cell lines; for IC50: average of IC50 values related to cancer cell lines
Protocol: as §1

[4] = test system: mitochondrial membrane potential of HCT116 cells; assay: Mitochondrial membrane potential, TMRE assay; type: cell-based, human; details: 5 h; 10 μM and 2x or 4x IC50,72h
Protocol: Effects of Ru complexes on mitochondrial membrane potential were assessed by TMRE staining of HCT116 cells after treatment. First, HCT116 cells were seeded on a six-well plate at a 1.5 × 10^5 cells/well density. The next day, the cells were treated with equimolar (10 μM) and equitoxic (twofold or fourfold IC50,72h) concentrations of Ru complexes for 5 h. Then, the cells were collected and stained with 100 nM TMRE in a complete DMEM medium for 30 min at 37 °C in the dark. The TMRE-containing medium was then replaced with PBS, and cells were analyzed by a BD FACSverse flow cytometer (λex = 488 nm, λem = 586 nm).

HCT116 cells = assay: Calcium flux, Rhod-2 and Fluo-4 probes; type: cell-based, human; details: for effect on Ca2+ flux into the mitochondria induced by ionomycin: 2.5 h pretreatment, 10 μM (1 also 2.5, 5 μM), Rhod-2, 5 μM ionomycin
Protocol: The distribution of calcium ions in cytosol and mitochondria was studied using calcium-sensitive fluorescent probes. HCT116 cells were seeded at a density of 2 × 10^5 cells/well on six-well plates. After overnight cultivation, the cells were treated with Ru complexes at indicated concentrations for 2.5 h. The culture medium was then replaced with either 5 μM Rhod-2 or Fluo-4 in PBS supplemented with 2 mM CaCl2 and incubated for 30 min at 37 °C. At last, cells were harvested and suspended in PBS (with 2 mM CaCl2) or in PBS (with 2 mM CaCl2) supplemented with ionomycin (5 μM) for 30 min at 37 °C and analyzed using a BD FACSverse flow cytometer.

[5] = DMSO-d6/DMEM-d 1:4 v/v, sum of chloro and aquo complexes

Row | Substance | Aquo species % in D2O after 48h [1] [%] | residual complex % in D2O ([1]; after 48 h at 37 °C) [%] | Aquo species % in D2O at t0 [1] [%] | Aquo species % in DMEM-d/DMSO-d6 at t0 [2] [%] | Aquo species % in DMEM-d/DMSO-d6 after 24h [2] [%] | residual complex % in DMEM-d/DMSO-d6 [2, 5] [%] | IC50 (HCT116) [µM] | IC50 (RD) [µM] | SI (selectivity index) [3] | IC50 [3] [µM] | residual complex % in DMSO-d6/D2O ([1]; DMSO-d6/D2O (4:1 v/v) mixture, after 48 h at 37 °C) | decrease of TMRE fluorescence (mitochondrial depolarization) [4] | residual complex % in DMEM-d/DMSO-d6 ([2]; compound 1: DMSO-d6/DMEM-d 4:1 v/v) [%] | increase in the concentration of Ca2+ in the cytoplasm (HCT116 cells; 2.5 h, 10 μM, Fluo-4) | effect on Ca2+ flux into the mitochondria induced by ionomycin (HCT116 cells)
1 | [RuCl(κ^3-tpm)(PPh3){NCHN(Me)(CH)2}]Cl [compound 3] | 93 | 100 | 75 | 0 | 66 | 100 | 16 ± 2 | 27 ± 4 | 2.0 | 42.8 ± 4.2 |  |  |  |  | 
2 | [RuCl(κ^3-tpm)(PPh3)2]Cl [compound 1] |  |  |  |  |  |  | 0.45 ± 0.05 | 2.2 ± 0.2 | 2.3 | 2.5 ± 0.3 | 69 ^c % | more pronounced | 88 | most prominent | reduced Ca^2+ flux into the mitochondria
3 | [RuCl(κ^3-tpm)(PPh3){P(OMe)3}]Cl [compound 7] | 83 | 100 | 57 | 0 | 16 | 95 | 5.8 ± 0.6 | 6 ± 1 | 3.4 | 7.1 ± 1 |  | less potent in reducing mitochondrial membrane potential |  |  | less pronounced
4 | [RuCl(κ^3-tpm)(PPh3)(CNCy)]Cl [compound 8] | 90 | 92 | 33 | 0 | 16 | 98 | 5.2 ± 0.5 | 6.6 ± 0.7 | 2.0 | 9.9 ± 1.5 |  | more pronounced |  |  | less pronounced
5 | [RuCl(κ^3-tpm)(PPh3){CNCH2P(O)(OEt2)2}]Cl [compound 9] | 73 | 93 | 0 | 0 | 17 | 97 | 29 ± 3 | 24 ± 3 | 1.5 | 35.2 ± 5 |  |  |  |  | insignificant
